Molecules are shown by their SMILES. Some results are limits rather than exact numbers.

Here are results for 18 compounds from patent US20230148184A1, “COMPOUNDS AND METHODS FOR MODULATING SPLICING” (REMIX THERAPEUTICS INC., priority 2020, published 2023).

Holding throughout (type): cell-based
The subject of one test is HTT mRNA. The test can be described thus: RT-qPCR splicing assay for HTT mRNA isoforms (canonical junction CJ and alternative junction AJ). The note with it: A673 or K562 cell line, 24 hours compound treatment; for IC50: decrease in CJ mRNA; for AC50: increase in AJ mRNA. The method, then:
(§1) Compounds described herein were used to modulate RNA transcript abundance in cells. The expression of a target mRNA was measured by detecting the formation of an exon-exon junction in the canonical transcript (CJ). A compound mediated exon-inclusion event was detected by observing an increase in formation of a new junction with an alternative exon (AJ). Real-time qPCR assays were used to detect these splicing switches and interrogate the potency of various compounds towards different target genes. A high-throughput real time quantitative PCR (RT-qPCR) assay was developed to measure these two isoforms of the mRNA (CJ and AJ) for an exemplary gene, HTT, together with a control housekeeping gene, GAPDH or GUSB or PPIA, used for normalization. Briefly, the A673 or K562 cell line was treated with various compounds described herein (e.g., compounds of Formula (I)). After treatment, the levels of the HTT mRNA targets were determined from each sample of cell lysate by cDNA synthesis followed by qPCR.
Cells-to-CT 1-step kit: ThermoFisher A25602, Cells-to-CT lysis reagent: ThermoFisher 4391851C, TaqMan™ Fast Virus 1-Step Master Mix: ThermoFisher 4444436 GAPDH: VIC-PL, ThermoFisher 4326317E (Assay: Hs99999905_m1)—used for K562/suspension cell lines GUSB: VIC-PL, ThermoFisher 4326320E (Assay: Hs99999908_m1)—used for K562/suspension cell lines PPIA: VIC-PL, ThermoFisher 4326316E (Assay: Hs99999904_m1)—used for A673/adherent cell lines
(§2) The A673 cell line was cultured in DMEM with 10% FBS. Cells were diluted with full growth media and plated in a 96-well plate (15,000 cells in 100 ul media per well). The plate was incubated at 37° C. with 5% CO2 for 24 hours to allow cells to adhere. An 11-point 3-fold serial dilution of the compounds was made in DMSO then diluted in media in an intermediate plate. Compounds were transferred from the intermediate plate to the cell plate with the top dose at a final concentration of 10 uM in the well. Final DMSO concentration was kept at or below 0.25%. The cell plate was returned to the incubator at 37° C. with 5% CO2 for an additional 24 hours.
(§3) The K562 cell line was cultured in IMDM with 10% FBS. For K562, cells were diluted with full growth media and plated in either a 96-well plate (50,000 cells in 50 uL media per well) or a 384-well plate (8,000-40,000 cells in 45 uL media per well). An 11-point 3-fold serial dilution of the compounds were made in DMSO then diluted in media in an intermediate plate. Compound was transferred from the intermediate plate to the cell plate with the top dose at a final concentration of 10 uM in the well. Final DMSO concentration was kept at or below 0.25%. Final volume was 100 uL for 96-well plate and 50 uL for 384-well plate. The cell plate was then placed in an incubator at 37° C. with 5% CO2 for 24 hours.
(§4) The cells were then gently washed with 50 uL-100 uL cold PBS before proceeding to addition of lysis buffer. 30 uL-50 uL of room temperature lysis buffer with DNAse I (and optionally RNAsin) was added to each well. Cells were shaken/mixed thoroughly at room temperature for 5-10 minutes for lysis to take place and then 3 uL-5 uL of room temperature stop solution was added and wells were shaken/mixed again. After 2-5 minutes, the cell lysate plate was transferred to ice for RT-qPCR reaction setup. The lysates could also be frozen at −80° C. for later use.
In some cases, a direct lysis buffer was used. An appropriate volume of 3× lysis buffer (10 mM Tris, 150 mM NaCl, 1.5%-2.5% Igepal and 0.1-1 U/uL RNAsin, pH 7.4) was directly added to either K562 or A673 cells in media and mixed by pipetting 3 times. The plates were then incubated at room temperature with shaking/rocking for 20-50 minutes to allow for lysis to take place. After this time, the cell lysate plate was transferred to ice to set up for the RT-qPCR reactions. The lysates could also be frozen at −80° C. for later use. […]
(In general: Quantitative PCR measures a nucleic acid by following its amplification.)

The subject of another test is Target C CJ mRNA. The test is described as follows: Gene panel canonical junction qPCR assay, Target C. The note with it: decrease in CJ mRNA levels, RT-qPCR. The method, then:
as §1, §2, §3, §4
(§5) In some cases, a direct lysis buffer was used. An appropriate volume of 3× lysis buffer (10 mM Tris, 150 mM NaCl, 1.5%-2.5% Igepal and 0.1-1 U/uL RNAsin, pH 7.4) was directly added to either K562 or A673 cells in media and mixed by pipetting 3 times. The plates were then incubated at room temperature with shaking/rocking for 20-50 minutes to allow for lysis to take place. After this time, the cell lysate plate was transferred to ice to set up for the RT-qPCR reactions. The lysates could also be frozen at −80° C. for later use.
(§6) To set up 10 uL RT-qPCR reactions, cell lysates were transferred to 384-well qPCR plates containing the master mix according to the table below. The plates were sealed, gently vortexed, and spun down before the run. The volumes were adjusted accordingly in some instances where the reaction was carried in 20 uL. The table below summarizes the components of the RT-qPCR reactions:
(§7) The RT-qPCR reaction was performed using a QuantStudio (ThermoFisher) under the following fast cycling conditions. […]

The test system of a further test is SMN2 CJ mRNA. The test can be described thus: Gene panel canonical junction qPCR assay, SMN2. The note with it: decrease in CJ mRNA levels, RT-qPCR. The procedure:
as §1, §2, §3, §4, §5, §6, §7

The next test concerns HTT CJ mRNA. The test is described as follows: Gene panel canonical junction qPCR assay, HTT. As to conditions: decrease in CJ mRNA levels, RT-qPCR. The procedure: as §1, §2, §3, §4, §5, §6, §7

For `c1cnn(-c2ccc3c(c2)COc2nc(N(C4CC4)[C@@H]4C[C@H]5CCC[C@@H](C4)N5)ccc2-3)c1` [Compound 203], in the test with HTT mRNA, the IC50 – broadly, the concentration that gives 50% inhibition – was 1 to 10 µM and the AC50 (usually the concentration at which the activity in the assay is half-maximal) fell in the range of 1 to 10 µM.

Take `C[C@@H]1C[C@H](N(C)c2ccc3c(c2)OCc2cc(-c4cn[nH]c4)ccc2-3)CCN1` [Compound 101, (2R,4R)—N,2-dimethyl-N-[8-(1H-pyrazol-4-yl)-6H-benzo[c]chromen-3-yl] piperidin-4-amine]: the IC50 with Target C CJ mRNA is more than 10 µM. In the test with HTT mRNA, this compound returned an AC50 of more than 10 µM.

Regarding `CN(c1ccc2c(n1)CCOc1cc(-c3cn[nH]c3)ccc1-2)[C@@H]1C[C@H]2CC[C@@H](C1)N2` [Compound 127, N-[(1R,3S,5S)-8-azabicyclo[3.2.1]octan-3-yl]-N-methyl-13-(1H-pyrazol-4-yl)-10-oxa-6-azatricyclo[9.4.0.0^[2,7]]pentadeca-1(11),2(7),3,5,12,14-hexaen-5-amine], the IC50 in the test on SMN2 CJ mRNA, with HTT CJ mRNA and in the test with HTT mRNA was more than 10 µM throughout. In the test on HTT mRNA, this compound displayed an AC50 of more than 10 µM.

With `CN(c1ccc2c(c1)COc1cc(-n3cccn3)ccc1-2)C1CC(C)(C)NC(C)(C)C1` [Compound 117, N,2,2,6,6-pentamethyl-N-[3-(pyrazol-1-yl)-6H-benzo[c]chromen-8-yl]piperidin-4-amine], the IC50 with SMN2 CJ mRNA, in the test with HTT CJ mRNA and with HTT mRNA was more than 10 µM throughout. In addition, the AC50 with HTT mRNA is more than 10 µM.

As for `CN(c1ccc2c(n1)CCOc1cc(-n3cccn3)ccc1-2)[C@@H]1C[C@H]2CC[C@@H](C1)N2` [Compound 128, N-[(1R,3S,5S)-8-azabicyclo[3.2.1]octan-3-yl]-N-methyl-13-(pyrazol-1-yl)-10-oxa-6-azatricyclo[9.4.0.0^[2,7]]pentadeca-1(11),2(7),3,5,12,14-hexaen-5-amine], the IC50 in the test with Target C CJ mRNA, in the test on HTT CJ mRNA and in the test on HTT mRNA was more than 10 µM each time. In addition, the AC50 in the test with HTT mRNA is more than 10 µM.

`CC1(C)CC(Nc2ccc3c(c2)COc2cc(-n4cccn4)ccc2-3)CC(C)(C)N1` [Compound 118, 2,2,6,6-tetramethyl-N-[3-(pyrazol-1-yl)-6H-benzo[c]chromen-8-yl]piperidin-4-amine]: the IC50 in the test with SMN2 CJ mRNA, with HTT CJ mRNA and in the test on HTT mRNA was more than 10 µM in each case. In the test on HTT mRNA, this compound registered an AC50 of more than 10 µM.

In the test with HTT mRNA, `Cc1cnc(-c2ccc3c(c2)COc2nc(N(C)[C@@H]4C[C@H]5CC[C@@H](C4)N5)ccc2-3)o1` [Compound 206] showed an IC50 of 0.1 to 1 µM and an AC50 of 0.1 to 1 µM.

In the case of `CN(c1ccc2c(n1)COc1cc(-n3cccn3)ccc1-2)[C@@H]1C[C@H]2CC[C@@H](C1)N2` [Compound 109], in the test with HTT mRNA, the half-inhibitory concentration (IC50) was in the range of 0.1 to 1 µM and the AC50 was in the range of 0.1 to 1 µM.

On to `CN(c1ccc2c(c1)CCOc1cc(-n3cccn3)ccc1-2)[C@@H]1C[C@H]2CC[C@@H](C1)N2` [Compound 138, (1R,3S,5S)—N-methyl-N-[5-(pyrazol-1-yl)-8-oxatricyclo[9.4.0.0^[2,7]]pentadeca-1(11),2(7), 3,5,12,14-hexaen-13-yl]-8-azabicyclo [3.2.1] octan-3-amine], for which the IC50 in the test with Target C CJ mRNA, in the test with HTT CJ mRNA and in the test on HTT mRNA was 1 to 10 µM in each case. This compound also came in with an AC50 in the test with HTT mRNA of 1 to 10 µM.

`c1cnn(-c2ccc3c(c2)OCc2cc(N[C@@H]4C[C@H]5CC[C@@H](C4)N5)ccc2-3)c1` [Compound 119]: the IC50 is 1 to 10 µM with Target C CJ mRNA, more than 10 µM in the test on HTT CJ mRNA and more than 10 µM in the test with HTT mRNA. The AC50 with HTT mRNA was more than 10 µM.

For `CN(c1ccc2c(n1)CCOc1cc(-c3cn[nH]c3)ccc1-2)C1CC(C)(C)NC(C)(C)C1` [Compound 114, N-methyl-13-(1H-pyrazol-4-yl)-N-(2,2,6,6-tetramethylpiperidin-4-yl)-10-oxa-6-azatricyclo[9.4.0.0^[2,7]]pentadeca-1(11),2(7),3,5,12,14-hexaen-5-amine], the values for the IC50 in the test with Target C CJ mRNA, with HTT CJ mRNA and with HTT mRNA were less than 0.1 µM, 0.1 to 1 µM and 0.1 to 1 µM, respectively. The compound further gave an AC50 in the test on HTT mRNA of less than 0.1 µM.

For `CN(c1ccc2c(c1)OCc1cc(-c3cn[nH]c3)ccc1-2)[C@@H]1C[C@H]2CC[C@@H](C1)N2` [Compound 104, (1R,3S,5S)—N-Methyl-N-[8-(1H-pyrazol-4-yl)-6H-benzo[c]chromen-3-yl]-8-azabicyclo[3.2.1]octan-3-amine], the IC50 in the test on Target C CJ mRNA, in the test with HTT CJ mRNA and in the test on HTT mRNA was more than 10 µM in each case. The AC50 with HTT mRNA was more than 10 µM.

For `CN(c1ccc2c(c1)CCOc1cc(-c3cn[nH]c3)ccc1-2)[C@@H]1C[C@H]2CC[C@@H](C1)N2` [Compound 112], the IC50 with Target C CJ mRNA is more than 10 µM.

In the test on HTT mRNA, `c1cnn(-c2ccc3c(c2)COc2nc(N(C4CC4)[C@@H]4C[C@H]5CC[C@@H](C4)N5)ccc2-3)c1` [Compound 205] displayed an IC50 of 1 to 10 µM and an AC50 of 0.1 to 1 µM.

Regarding `c1cc2c(cc1N[C@@H]1C[C@H]3CC[C@@H](C1)N3)CCOc1cc(-c3cn[nH]c3)ccc1-2` [Compound 132, N-[5-(1H-pyrazol-4-yl)-8-oxatricyclo[9.4.0.0^[2,7]]pentadeca-1(11),2(7),3,5,12,14-hexaen-13-yl]-8-azabicyclo [3.2.1] octan-3-amine], the IC50 in the test with Target C CJ mRNA, in the test on HTT CJ mRNA and in the test on HTT mRNA was more than 10 µM throughout. The compound also had an AC50 in the test on HTT mRNA of more than 10 µM.

In the test on HTT mRNA, `CC1(C)CC(N(c2ccc3c(n2)OCc2cc(-n4cccn4)ccc2-3)C2CC2)CC(C)(C)N1` [Compound 204] yielded an IC50 of 1 to 10 µM and an AC50 of more than 10 µM.

Turning to `C[C@H]1C[C@H](N(C)c2ccc3c(c2)OCc2cc(-c4cn[nH]c4)ccc2-3)CCN1` [Compound 102, (2S,4R)—N,2-dimethyl-N-[8-(1H-pyrazol-4-yl)-6H-benzo[c]chromen-3-yl]piperidin-4-amine], the IC50 in the test with Target C CJ mRNA, in the test on HTT CJ mRNA and in the test with HTT mRNA was more than 10 µM in each case. Moreover, the AC50 with HTT mRNA is more than 10 µM.

For `CC1(C)CC(Nc2ccc3c(n2)CCOc2cc(-c4cn[nH]c4)ccc2-3)CC(C)(C)N1` [Compound 141, 13-(1H-pyrazol-4-yl)-N-(2,2,6,6-tetramethylpiperidin-4-yl)-10-oxa-6-azatricyclo[9.4.0.0^[2,7]]pentadeca-1(11),2(7),3,5,12,14-hexaen-5-amine], the IC50 in the test with Target C CJ mRNA was 1 to 10 µM; in the test on HTT CJ mRNA, more than 10 µM; in the test with HTT mRNA it was more than 10 µM. Also, in the test on HTT mRNA, the AC50 is more than 10 µM.
